Data reported in patent US11718637B2, “Prodrugs of 4′-C-substituted-2-halo-2′- deoxyadenosine nucleosides and methods of making and using the same” (Gilead Sciences, Inc., priority 2020, dated 2023).
Converted amounts (≈) assume the structure as drawn. Where two headings read alike, the source gives them in different places.

Experiments:
[1] = system: HIV-1 (IIIB); assay: Antiviral assay in MT-4 cells; type: cell-based
Procedure: (§1) Compounds were tested in a high-throughput 384-well assay format for their ability to inhibit the replication of HIV-1 (IIIB) in MT-4 cells. Compounds were serially diluted (1:3) in DMSO on 384-well polypropylene plates and further diluted 200-fold into complete RPMI media (10% FBS, 1% P/S) using the Biotek Micro Flow and Labcyte ECHO acoustic dispenser. Each plate contained up to 8 test compounds, with negative (No Drug Control) and 5 μM AZT positive controls. MT-4 cells were pre-infected with 10 μL of either RPMI (mock-infected) or a fresh 1:250 dilution of HIV-1 IIIB concentrated virus stock. Infected and uninfected MT-4 cells were further diluted in complete RPMI media and added to each plate using a Micro Flow dispenser. After 5 days incubation in a humidified and temperature-controlled incubator (37° C.), Cell Titer Glo (Promega) was added to the assay plates and chemiluminescence read using an Envision plate-reader. EC50 values were defined as the compound concentration that causes a 50% decrease in luminescence signal, and were calculated using a sigmoidal dose-response model to generate curve fits.

[2] = Cytotoxicity assay in MT-4 cells; type: cell-based; conditions: human; uninfected MT-4 cells, 5 days incubation, Cell Titer Glo
Procedure: as §1, with “fits. Assays were performed as above except uninfected MT-4 cells were added to each well containing test compound. In addition, 10 μM puromycin was added to the last column of each assay plate to assess a base level of cytotoxicity.” for “fits.”

[3] = Kinetic solubility analysis (CLND); type: physicochemical; conditions: 24.2 °C, kinetic from dmso stock, from DMSO stocks, 1.0% DMSO, 24-hour incubation at ambient temperature, medium (0.1N HCl or PBS 7.4) not stated
Procedure: Kinetic Solubility Analysis (CLND)
0.1N HCl: Hydrochloric acid, 0.1N standardized solution.
1×PBS, 7.4: Phosphate Buffered Saline solution 10×, PBS 50 mL was added to approximately 450 mL HPLC grade H2O. The volume of the solution was then adjusted to 500 mL for a total dilution factor of 1:10 and a final PBS concentration of 1×. The pH of the final solution was measured and found to be 7.4.
Kinetic Solubility from DMSO Stocks: 100-fold dilutions of each DMSO stock solution were prepared in singleton by combining 3 μL of DMSO stock with 297 μL of the appropriate media in a Millipore solubility filter plate with a […] polycarbonate filter membrane using Hamilton Starlet liquid handling. The final DMSO concentration is 1.0% and maximum theoretical compound concentration is 100 μM (assuming stock concentration of 10 mM). The filter plate was sealed. Following 24-hour incubation at ambient temperature (24.2-27.5° C.), the samples were vacuum filtered and the filtrates were collected in a 96 well polypropylene plate for analysis. The collection plate was sealed for analysis.
Filtrates were injected into the nitrogen detector for quantification. The results are reported here in μM.
Calculation of Results: The equimolar nitrogen response of the detector was calibrated using standards which spanned the dynamic range of the instrument from […] nitrogen. The filtrates were quantified with respect to this calibration curve. The calculated solubility values were corrected for background nitrogen present in the DMSO and the media used to prepare the samples. All reported values for compounds containing adjacent nitrogen atoms in a ring structure should be increased by ˜25%. […] The solubility results presented assume that the samples were free of nitrogen containing impurities and were stable under the assay conditions.

[4] = Human immunodeficiency virus 1, MT4, 120 h, HIV-1 IIIB replication in MT-4 cells, 5 days incubation, Cell Titer Glo, read-out: EC50

## C#C[C@]1(COC(=O)c2ccccc2COC(=O)CCCCCCCCCCCCCCC)O[C@@H](n2cnc3c(N)nc(F)nc32)C[C@@H]1OC(=O)c1ccccc1COC(=O)CCCCCCCCCCCCCCC [Compound 7, (2R,3S,5R)-5-(6-amino-2-fluoro-9H-purin-9-yl)-2-ethynyl-2-(((2-((palmitoyloxy)methyl)benzoyl)oxy)methyl)tetrahydrofuran-3-yl 2-((palmitoyloxy)methyl)benzoate]
[1]; [4]
  EC50: > 500 nM
[2]
  CC50 at 5 days: > 50000 nM
[3]
  solubility kinetic at 24 h: 2 µM (≈ 2.08 µg/mL)

## C#C[C@]1(CO[P@@](=O)(N[C@@H](C)C(=O)OCC(CC)CC)Oc2ccccc2)O[C@@H](n2cnc3c(N)nc(F)nc32)C[C@@H]1O (single isomer, unassigned) [Compound 4]
[1]; Human immunodeficiency virus 1, IIIB, MT4, 120 h
  EC50: 8 nM

## C#C[C@]1(COC(=O)C(C)C)O[C@@H](n2cnc3c(N)nc(F)nc32)C[C@@H]1OC(=O)C(C)C [Compound 1, (2R,3S,5R)-5-(6-amino-2-fluoro-9H-purin-9-yl)-2-ethynyl-2-((isobutyryloxy)methyl)tetrahydrofuran-3-yl isobutyrate]
[1]; [4]
  EC50: 7 nM
[2]
  CC50 at 5 days: 37300 nM
[3]
  solubility kinetic at 24 h: 6.6 µM (≈ 2.86 µg/mL)

## C#C[C@]1(CO)O[C@@H](n2cnc3c(N)nc(F)nc32)C[C@@H]1OC(=O)CCCCCCCCCCCCC [Compound 9, (2R,3S,5R)-5-(6-amino-2-fluoro-9H-purin-9-yl)-2-ethynyl-2-(hydroxymethyl)tetrahydrofuran-3-yl tetradecanoate]
[1]; [4]
  EC50: 4 nM
[2]
  CC50 at 5 days: > 23000 nM
[3]
  solubility kinetic at 24 h: < 1 µM

## C#C[C@]1(COC(=O)OCCCCCCCCCCCC)O[C@@H](n2cnc3c(N)nc(F)nc32)C[C@@H]1O [Compound 12, ((2R,3S,5R)-5-(6-amino-2-fluoro-9H-purin-9-yl)-2-ethynyl-3-hydroxytetrahydrofuran-2-yl)methyl dodecyl carbonate]
[1]; [4]
  EC50: 6 nM
[2]
  CC50 at 5 days: 17000 nM
[3]
  solubility kinetic at 24 h: < 1 µM

## C#C[C@]1(CO)O[C@@H](n2cnc3c(N)nc(F)nc32)C[C@@H]1OC(=O)c1ccccc1COC(=O)CCCCCCCCCCCCCCC [Compound 6, (2R,3S,5R)-5-(6-amino-2-fluoro-4,5-dihydro-9H-purin-9-yl)-2-ethynyl-2-(hydroxymethyl)tetrahydrofuran-3-yl 2-((palmitoyloxy)methyl)benzoate]
[1]; [4]
  EC50: 29 nM
[2]
  CC50 at 5 days: > 50000 nM
[3]
  solubility kinetic at 24 h: < 1 µM

## C#C[C@]1(COC(=O)CCCCCCCCCCCCC)O[C@@H](n2cnc3c(N)nc(F)nc32)C[C@@H]1OC(=O)CCCCCCCCCCCCC [Compound 10, (2R,3S,5R)-5-(6-amino-2-fluoro-9H-purin-9-yl)-2-ethynyl-2-((tetradecanoyloxy)methyl)tetrahydrofuran-3-yl tetradecanoate]
[1]; [4]
  EC50: > 500 nM
[2]
  CC50 at 5 days: > 50000 nM
[3]
  solubility kinetic at 24 h: < 1 µM

## C#C[C@]1(COC(=O)CC(C)(C)c2c(C)cc(C)cc2OC(C)=O)O[C@@H](n2cnc3c(N)nc(F)nc32)C[C@@H]1O [Compound 14, ((2R,3S,5R)-5-(6-amino-2-fluoro-9H-purin-9-yl)-2-ethynyl-3-hydroxytetrahydrofuran-2-yl)methyl 3-(2-acetoxy-4,6-dimethylphenyl)-3-methylbutanoate]
[1]; [4]
  EC50: 4 nM
[2]
  CC50 at 5 days: > 21600 nM
[3]
  solubility kinetic at 24 h: 37 µM (≈ 20 µg/mL)

## C#C[C@]1(COC(=O)CCCCCCCCCCCCCCCCC)O[C@@H](n2cnc3c(N)nc(F)nc32)C[C@@H]1O [Compound 11, ((2R,3S,5R)-5-(6-amino-2-fluoro-9H-purin-9-yl)-2-ethynyl-3-hydroxytetrahydrofuran-2-yl)methyl stearate]
[1]; [4]
  EC50: 7 nM
[2]
  CC50 at 5 days: > 41500 nM
[3]
  solubility kinetic at 24 h: < 1 µM

## C#C[C@]1(CO)O[C@@H](n2cnc3c(N)nc(F)nc32)C[C@@H]1OC(=O)CC(C)(C)c1c(C)cc(C)cc1OC(C)=O [Compound 15, (2R,3S,5R)-5-(6-amino-2-fluoro-9H-purin-9-yl)-2-ethynyl-2-(hydroxymethyl)tetrahydrofuran-3-yl 3-(2-acetoxy-4,6-dimethylphenyl)-3-methylbutanoate]
[1]; [4]
  EC50: 3 nM
[2]
  CC50 at 5 days: 11800 nM
[3]
  solubility kinetic at 24 h: 25.1 µM (≈ 13.5 µg/mL)

## C#C[C@]1(CO)O[C@@H](n2cnc3c(NC(=O)OCCCCCCCCCCCCCCCC)nc(F)nc32)C[C@@H]1O [Compound 3, Hexadecyl (9-((2R,4S,5R)-5-ethynyl-4-hydroxy-5-(hydroxymethyl)tetrahydrofuran-2-yl)-2-fluoro-9H-purin-6-yl)carbamate]
[1]; [4]
  EC50: 60 nM
[2]
  CC50 at 5 days: 11800 nM

## C#C[C@]1(COC(=O)c2ccccc2COC(=O)CCCCCCCCCCCCCCC)O[C@@H](n2cnc3c(N)nc(F)nc32)C[C@@H]1O [Compound 5]
[1]; [4]
  EC50: 8 nM
[2]
  CC50 at 5 days: > 50000 nM
[3]
  solubility kinetic at 24 h: < 1 µM

## C#C[C@]1(COC(=O)CCCCCCCCCCCCC)O[C@@H](n2cnc3c(N)nc(F)nc32)C[C@@H]1O [Compound 8, ((2R,3S,5R)-5-(6-amino-2-fluoro-9H-purin-9-yl)-2-ethynyl-3-hydroxytetrahydrofuran-2-yl)methyl tetradecanoate]
[1]; [4]
  EC50: 3 nM
[2]
  CC50 at 5 days: > 20200 nM
[3]
  solubility kinetic at 24 h: < 1 µM

## C#C[C@]1(COC(=O)CCCCCC)O[C@@H](n2cnc3c(N)nc(F)nc32)C[C@@H]1OC(=O)CCCCCC [Compound 17, (2R,3S,5R)-5-(6-amino-2-fluoro-9H-purin-9-yl)-2-ethynyl-2-((heptanoyloxy)methyl)tetrahydrofuran-3-yl heptanoate]
[1]; [4]
  EC50: 7 nM
[2]
  CC50 at 5 days: > 20900 nM
[3]
  solubility kinetic at 24 h: < 1 µM

## C#C[C@]1(COC(=O)CCCCCC)O[C@@H](n2cnc3c(NC(=O)CCCCCC)nc(F)nc32)C[C@@H]1OC(=O)CCCCCC [Compound 18, (2R,3S,5R)-2-ethynyl-5-(2-fluoro-6-heptanamido-9H-purin-9-yl)-2-((heptanoyloxy)methyl)tetrahydrofuran-3-yl heptanoate-3-yl 2-((palmitoyloxy)methyl)benzoate]
[1]; [4]
  EC50: 20 nM
[2]
  CC50 at 5 days: > 10100 nM
[3]
  solubility kinetic at 24 h: 1.5 µM (≈ 0.945 µg/mL)

## C#C[C@]1(COC(=O)CC(C)(C)c2c(C)cc(C)cc2OC(C)=O)O[C@@H](n2cnc3c(N)nc(F)nc32)C[C@@H]1OC(=O)CC(C)(C)c1c(C)cc(C)cc1OC(C)=O [Compound 16, ((2R,3S,5R)-3-((3-(2-acetoxy-4,6-dimethylphenyl)-3-methylbutanoyl)oxy)-5-(6-amino-2-fluoro-9H-purin-9-yl)-2-ethynyltetrahydrofuran-2-yl)methyl 3-(2-acetoxy-4,6-dimethylphenyl)-3-methylbutanoate]
[1]; [4]
  EC50: 10 nM
[2]
  CC50 at 5 days: 15700 nM
[3]
  solubility kinetic at 24 h: < 1 µM

## C#C[C@]1(CO)O[C@@H](n2cnc3c(NC(=O)OCCCCCCCCCCCCCC)nc(F)nc32)C[C@@H]1O [Compound 2, Tetradecyl (9-((2R,4S,5R)-5-ethynyl-4-hydroxy-5-(hydroxymethyl)tetrahydrofuran-2-yl)-2-fluoro-9H-purin-6-yl)carbamate]
[1]; [4]
  EC50: 70 nM
[2]
  CC50 at 5 days: 13400 nM
[3]
  solubility kinetic at 24 h: 1.2 µM (≈ 0.64 µg/mL)

## C#C[C@]1(COC(=O)OCCCCCCCCCCCC)O[C@@H](n2cnc3c(N)nc(F)nc32)C[C@@H]1OC(=O)OCCCCCCCCCCCC [Compound 13, ((2R,3S,5R)-5-(6-amino-2-fluoro-9H-purin-9-yl)-3-(((dodecyloxy)carbonyl)oxy)-2-ethynyltetrahydrofuran-2-yl)methyl dodecyl carbonate]
[1]; [4]
  EC50: > 500 nM
[2]
  CC50 at 5 days: 5500 nM
[3]
  solubility kinetic at 24 h: < 1 µM
